In one experiment the target is T1, TRPM4 (Homo sapiens, UniProt Q8TD43).
T1 construct: FLAG (N); expressed in transfected cells; host or cells: HEK 293 (tetracycline-induced FLAG-humanTRPM4/pCDNA4/TO); also Jurkat cells (endogenous TRPM4)
The experiment is described as follows: Activation of TRPM4 channel, whole-cell patch clamp in Jurkat cells and HEK-293 cells overexpressing TRPM4. Format: cell-based. The following applies: free intracellular calcium 300 nM. As for the experimental part:
Human leukemic T cells (Jurkat cells) and HEK 293 cells transfected with the FLAG-humanTRPM4/pCDNA4/TO construct were grown on glass coverslips with DMEM medium supplemented with 10% FBS, blasticidin (5 μg/mL) and zeocin ([…]). TRPM4 expression was induced one day before use by adding 1 μg/mL tetracycline to the culture medium and patch clamp experiments were performed 16-24 hours post-induction (for additional details see Launay et al. (2000)).
Patch clamp experiments were performed in the tight-seal whole-cell configuration at 21-25° C. High resolution current recordings were acquired by a computer-based patch clamp amplifier system (EPC-9, HEKA, Lambrecht, Germany). Patch pipettes had resistances between […] after filling with the standard intracellular solution. […] Capacitive currents and series resistance were determined and corrected before each voltage ramp using the automatic capacitance compensation of the EPC-9. The low resolution temporal development of membrane currents was assessed by extracting the current amplitude at −80 mV or +80 mV from individual ramp current records.
TRPM4 currents were measured in Jurkat cells and HEK-293 cells overexpressing TRPM4. […]
(In patch-clamp work, channel activity is measured electrically.)

In experiment [1] the test system is IL-2 production. The experiment is described as follows: Inhibition of IL-2 production in PHA-activated Jurkat cells (ELISA). The class given is cell-based. The following applies: Homo sapiens, PHA 2.5 μg/mL, 20 hours, value bins. On the procedure: Jurkat cells were placed in a 96 well plate (0.5 million cells per well in 1% FBS medium) then test compounds of this invention were added at different concentrations. After 10 minutes, the cells were activated with PHA (final concentration 2.5 μg/mL) and incubated for 20 hours at 37° C. under CO2. The final volume was 200 μL. Following incubation, the cells were centrifuged and the supernatants collected and stored at −70° C. prior to assaying for IL-2 production. A commercial ELISA kit (IL-2 Eli-pair, Diaclone Research, Besancon, France) was used to detect production of IL-2, from which dose response curves were obtained. The IC50 value was calculated as the concentration at which 50% of maximum IL-2 production after stimulation was inhibited versus a non-stimulation control.
Background: An ELISA detects its analyte on a solid surface through an enzyme-linked reagent.

The subject of the next experiment is IL-10. As to the kind of experiment: Cytokine inhibition in PHA-stimulated primary human PBMCs: IL-10. Format: cell-based. To be noted: PBMC. As for the experimental part:
(§1) Cytokine production was measured using commercially available human ELISA assay kits (from Cell Science, Inc.) following the manufacturers instructions.

A further experiment concerns RBL cells. The experiment is described as follows: Inhibition of degranulation in RBL cells. The following applies: Rattus norvegicus, anti-DNP IgE / anti-IgE, read-out: concentration at which 50% of degranulation is inhibited. The class given is cell-based. On the procedure: Procedure: • The day before the assay was performed, RBL cells, that had been grown to confluence in a 96 well plate, were incubated at 37° C. for at least 2 hours. The medium was replaced in each well with 100 μL of fresh medium containing of anti-DNP IgE.
On the following day, the cells were washed once with PRS (2.6 mM glucose and 0.1% BSA) and 160 μL of PRS was added to each well. The test compound was addded to a well in a 20 μL solution at 10× of the desired concentration and incubated for 20 to 40 minutes at 37° C. 20 μL of 10× mouse anti-IgE (10 μL/mL). Maximum degranulation occurred between 15 to 40 minutes after addition of anti-IgE.

Another experiment relates to IL-2. As to the kind of experiment: Cytokine inhibition in PHA-stimulated primary human PBMCs: IL-2. The class given is cell-based. To be noted: PBMC. On the procedure: as §1
In the next experiment the test system is IL-5. The experiment is described as follows: Cytokine inhibition in PHA-stimulated primary human PBMCs: IL-5. The class given is cell-based. The following applies: PBMC. On the procedure: as §1
In another experiment the test system is IL-13. As to the kind of experiment: Cytokine inhibition in PHA-stimulated primary human PBMCs: IL-13. The class given is cell-based. The following applies: PBMC. As for the experimental part: as §1
The subject of experiment [2] is CRAC ion channel (ICRAC current). As to the kind of experiment: Patch clamp inhibition of ICRAC current in primary T cells. The class given is cell-based. To be noted: primary human T cells, varying concentrations. As for the experimental part:
Membrane currents of individual cells were recorded using the whole-cell configuration of the patch clamp technique with an EPC10 (HEKA Electronik, Lambrecht, Germany). Electrodes (2-5 MD in resistance) were fashioned from borosilicate glass capillary tubes (Sutter Instruments, Novato, Ca). The recordings were done at room temperature.
ICRAC currents were monitored every 2 seconds using a 50 msec protocol, where the voltage was ramped from −100 mV to +100 mV. The membrane potential was held at 0 mV between the test ramps. In a typical experiment the peak inward currents would develop within 50-100 seconds. Once the ICRAC currents were stabilized, the cells were perfused with compounds in the extracellular solution. At the end of an experiment the remaining ICRAC currents were then challenged with a control compound (SKF96365, 10 μM) to ensure that the current could still be inhibited.
The ICRAC current level was determined by measuring the inward current amplitude at −80 mV of the voltage ramp in an off-line analysis using MATLAB. The ICRAC current inhibition for each concentration was calculated using peak amplitude in the beginning of the experiment from the same cell. The IC50 value and Hill coefficient for each compound was estimated by fitting all the individual data points to a single Hill equation. […]

The test system of the next experiment is GM-CSF. As to the kind of experiment: Cytokine inhibition in PHA-stimulated primary human PBMCs: GM-CSF. Format: cell-based. To be noted: PBMC. As for the experimental part:
as §1

Experiment [3] deals with CRAC ion channel (ICRAC current). As to the kind of experiment: Patch clamp inhibition of ICRAC current in Jurkat cells. The following applies: 1 μM compound, n=3. Format: cell-based, human. On the procedure: In general, a whole cell patch clamp method was used to examine the effects of a compound of the invention on a channel that mediates Icrac. In such experiments, a baseline measurement was established for a patched cell. Then a compound to be tested was perfused (or puffed) to cells in the external solution and the effect of the compound on Icrac was measured. A compound that modulates Icrac (e.g., inhibits) is a compound that is useful in the invention for modulating CRAC ion channel activity.
Jurkat T cells were grown on glass coverslips, transferred to the recording chamber and kept in a standard modified Ringers solution of the following composition: NaCl 145 mM, KCl 2.8 mM, CsCl 10 mM, CaCl2 10 mM, MgCl2 2 mM, glucose 10 mM, HEPES.NaOH 10 mM, pH 7.2.
The external solution contained 10 mM CaNaR, 11.5 mM glucose and the test compound at the concentrations described below.
The standard intracellular pipette solution contained: Cs-glutamate 145 mM, NaCl 8 mM, MgCl2 1 mM, ATP 0.5 mM, GTP 0.3 mM, pH 7.2 adjusted with CsOH. […]
Patch-clamp experiments were performed in the tight-seal whole-cell configuration at 21-25° C. […] Capacitive currents and series resistance were determined and corrected before each voltage ramp using the automatic capacitance compensation of the EPC-9. […]

The next experiment has as its system IL-4. The experiment is described as follows: Cytokine inhibition in PHA-stimulated primary human PBMCs: IL-4. The class given is cell-based. The following applies: PBMC. As for the experimental part: as §1
Another experiment concerns TNF-α. As to the kind of experiment: Cytokine inhibition in PHA-stimulated primary human PBMCs: TNF-α. The class given is cell-based. To be noted: PBMC. As for the experimental part: as §1
The next experiment relates to TNF-α production. The experiment is described as follows: TNF-α production upon PMA/ionomycin stimulation in whole blood of dosed cynomolgus monkeys. The class given is in vivo. To be noted: IV 5 mg/kg, 4 hours after dosing. On the procedure:
(§2) 3 male non-native cynomolgus monkeys were fasted overnight prior to and for four (4) hours following each dose. Each monkey was given a single intravenous dose of the appropriate test compound followed by a 1 mL rinse of saline to flush the catheter. The dose was infused over one hour using calibrated syringe pumps. Following a one week washout, the same three monkeys were given a single oral gavage dose of the appropriate test compound dose formulation followed by a 10 mL flush with tap water. Following a second one week washout, the same three monkeys received a second oral dose of the appropriate test compound dose formulation followed by a 10 mL flush with tap water. Following a third one week washout, the same three monkeys received a third oral dose of the appropriate test compound dose formulation followed by a 10 mL flush with tap water. Prior to and at 1, 2, and 4 hours following each dose (measured from the start of dosing for IV doses), blood samples ([…] for Group 1 and 2 mL/sample for Groups 2 and 3) were drawn into tubes containing sodium heparin and stored at room temperature, and the concentration of the test compounds in each sample was measured. CsA was included as a positive control.

For experiment [4], the system named is IL-2 production. As to the kind of experiment: IL-2 production upon PMA/ionomycin stimulation in whole blood of dosed cynomolgus monkeys. Format: in vivo. The following applies: IV 5 mg/kg, 4 hours after dosing. On the procedure: as §2
Another experiment deals with INF-γ. The experiment is described as follows: Cytokine inhibition in PHA-stimulated primary human PBMCs: INF-γ. The class given is cell-based. To be noted: PBMC. On the procedure: as §1

T1 sequence (Q8TD43 whole entry): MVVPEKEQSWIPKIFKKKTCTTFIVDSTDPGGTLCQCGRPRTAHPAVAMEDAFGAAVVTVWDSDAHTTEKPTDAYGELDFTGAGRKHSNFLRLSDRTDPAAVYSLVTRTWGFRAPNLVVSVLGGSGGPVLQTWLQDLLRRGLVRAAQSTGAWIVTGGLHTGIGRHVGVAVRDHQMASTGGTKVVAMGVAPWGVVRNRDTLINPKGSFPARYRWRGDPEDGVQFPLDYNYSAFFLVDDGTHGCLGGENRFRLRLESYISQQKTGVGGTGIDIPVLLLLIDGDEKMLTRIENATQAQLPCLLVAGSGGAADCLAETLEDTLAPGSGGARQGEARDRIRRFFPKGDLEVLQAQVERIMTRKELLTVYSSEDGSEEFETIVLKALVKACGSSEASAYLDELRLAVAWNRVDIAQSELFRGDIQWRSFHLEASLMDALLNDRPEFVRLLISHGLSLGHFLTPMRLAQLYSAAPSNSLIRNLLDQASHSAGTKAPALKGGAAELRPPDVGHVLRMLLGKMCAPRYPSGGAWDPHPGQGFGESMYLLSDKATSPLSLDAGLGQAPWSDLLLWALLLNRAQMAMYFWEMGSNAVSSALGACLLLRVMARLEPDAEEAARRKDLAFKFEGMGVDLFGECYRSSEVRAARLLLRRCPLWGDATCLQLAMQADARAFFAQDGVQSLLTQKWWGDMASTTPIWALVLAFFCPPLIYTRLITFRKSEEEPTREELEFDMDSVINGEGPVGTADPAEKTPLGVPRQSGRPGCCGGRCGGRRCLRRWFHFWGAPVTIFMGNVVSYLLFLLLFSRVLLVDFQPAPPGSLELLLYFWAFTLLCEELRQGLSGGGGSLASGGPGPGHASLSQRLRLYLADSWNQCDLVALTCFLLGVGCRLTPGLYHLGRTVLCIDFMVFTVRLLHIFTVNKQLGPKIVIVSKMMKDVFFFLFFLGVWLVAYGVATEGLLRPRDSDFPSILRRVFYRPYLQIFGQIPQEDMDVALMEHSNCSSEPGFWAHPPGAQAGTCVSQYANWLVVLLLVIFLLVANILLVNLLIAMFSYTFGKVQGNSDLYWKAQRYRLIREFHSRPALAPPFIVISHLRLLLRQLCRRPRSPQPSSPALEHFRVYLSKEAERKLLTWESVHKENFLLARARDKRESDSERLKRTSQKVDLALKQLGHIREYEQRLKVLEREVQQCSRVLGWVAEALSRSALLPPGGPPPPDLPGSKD

With `O=C(Nc1ccc(-c2cc(C(F)(F)F)ccc2Cl)cc1)c1cccc(F)c1F` [Compound 23], on TRPM4, the EC50 lay within 0.02 to 0.05 µM. The molecule further showed an IC50 in the experiment on IL-2 production [1] of less than 0.1 µM.

Take `Cc1nnsc1C(=O)Nc1ccc(-c2cc(C(F)(F)F)ccc2C(F)(F)F)cc1` [Compound 24, 4-Methyl-[1,2,3]thiadiazole-5-carboxylic acid (2′,5′-bis-trifluoromethyl-biphenyl-4-yl)-amide]: the EC50 at TRPM4 lay within 0.02 to 0.05 µM. Besides, the IC50 with IL-2 production [1] was less than 0.1 µM.

For the molecule `COc1ccc(OC)c(-c2ccc(NC(=O)c3cccc(F)c3F)cc2)c1` [Compound 31, N-(2′,5′-Dimethoxy-biphenyl-4-yl)-2,3-difluoro-benzamide], the IC50 was greater than 1 µM in the experiment on IL-10; 0.38 µM in the experiment with RBL cells; 0.006 µM in the experiment on IL-2; 0.011 µM in the experiment with IL-5; 0.051 µM in the experiment on IL-13; 0.097 µM with GM-CSF. Also, the IC50 with IL-4 worked out at 0.071 µM; in the experiment on TNF-α, 0.068 µM; in the experiment with INF-γ, 0.042 µM. Besides, in experiment [2], the “inhibition of ICRAC current in primary T cells compared with RBL cells (FIG. 1)” value is “inhibits ICRAC current equally well in primary T cells as in RBL cells”. The “inhibition of Icrac in Jurkat cells” value in experiment [3] is greater than 43%. Moreover, the “TNF-α production after IV infusion (FIG. 4)” value in the experiment on TNF-α production is listed as “significantly inhibit TNF-α production”. Further, the “IL-2 production after IV infusion (FIG. 3)” value in the experiment on IL-2 production [4] was “significantly inhibit IL-2 production”.

As for `COc1ccc(OC)c(-c2ccc(NC(=O)c3ccncc3F)cc2)c1` [Compound 66, 3-fluoro-pyridine-4-carboxylic acid (2′,5′-dimethoxybiphenyl-4-yl)-amide], the IC50 was greater than 1 µM in the experiment on IL-10; 0.43 µM with RBL cells; 0.02 µM in the experiment on IL-2; 0.021 µM with IL-5; 0.075 µM in the experiment with IL-13; 0.448 µM in the experiment with GM-CSF. Besides, the IC50 with IL-4 is 0.445 µM; with TNF-α, 0.271 µM; with IL-2 production [1] it was less than 0.1 µM; with INF-γ, 0.088 µM. Also, in experiment [3], the “inhibition of Icrac in Jurkat cells” value was greater than 90%.

Consider `CSc1ccccc1-c1ccc(NC(=O)c2ccncc2C)cc1` [Compound 75, 3-methyl-pyridine-4-carboxylic acid (2′-methylsulfanyl-biphenyl-4-yl)-amide], for which the IC50 was greater than 1 µM in the experiment with IL-10; 0.004 µM with IL-2; 0.007 µM in the experiment on IL-5; 0.015 µM in the experiment with IL-13; 0.152 µM in the experiment on GM-CSF; 0.103 µM in the experiment on IL-4. The IC50 is 0.081 µM in the experiment on TNF-α, less than 0.1 µM in the experiment on IL-2 production [1] and 0.023 µM in the experiment with INF-γ.

For the molecule `COc1ccc(CCCOC(Cn2ccnc2)c2ccc(OC)cc2)cc1` (centres unmarked) [SKF96365, reference compound], the IC50 in the experiment on RBL cells is greater than 20 µM.

By EC50 is commonly meant the midpoint of the concentration-response curve.

These data come from US20050148633A1 (priority 2003, published 2005).
